Reference: article PMC2785468, “Androgen Receptor Mutations Associated with Androgen Insensitivity Syndrome: A High Content Analysis Approach Leading to Personalized Medicine” (PLoS ONE, 2009)

Target: T1, AR-F764L (Homo sapiens, UniProt P10275, F765L)
T1 construct: expressed in transfected cells
T1 sequence (P10275 1-920 F765L): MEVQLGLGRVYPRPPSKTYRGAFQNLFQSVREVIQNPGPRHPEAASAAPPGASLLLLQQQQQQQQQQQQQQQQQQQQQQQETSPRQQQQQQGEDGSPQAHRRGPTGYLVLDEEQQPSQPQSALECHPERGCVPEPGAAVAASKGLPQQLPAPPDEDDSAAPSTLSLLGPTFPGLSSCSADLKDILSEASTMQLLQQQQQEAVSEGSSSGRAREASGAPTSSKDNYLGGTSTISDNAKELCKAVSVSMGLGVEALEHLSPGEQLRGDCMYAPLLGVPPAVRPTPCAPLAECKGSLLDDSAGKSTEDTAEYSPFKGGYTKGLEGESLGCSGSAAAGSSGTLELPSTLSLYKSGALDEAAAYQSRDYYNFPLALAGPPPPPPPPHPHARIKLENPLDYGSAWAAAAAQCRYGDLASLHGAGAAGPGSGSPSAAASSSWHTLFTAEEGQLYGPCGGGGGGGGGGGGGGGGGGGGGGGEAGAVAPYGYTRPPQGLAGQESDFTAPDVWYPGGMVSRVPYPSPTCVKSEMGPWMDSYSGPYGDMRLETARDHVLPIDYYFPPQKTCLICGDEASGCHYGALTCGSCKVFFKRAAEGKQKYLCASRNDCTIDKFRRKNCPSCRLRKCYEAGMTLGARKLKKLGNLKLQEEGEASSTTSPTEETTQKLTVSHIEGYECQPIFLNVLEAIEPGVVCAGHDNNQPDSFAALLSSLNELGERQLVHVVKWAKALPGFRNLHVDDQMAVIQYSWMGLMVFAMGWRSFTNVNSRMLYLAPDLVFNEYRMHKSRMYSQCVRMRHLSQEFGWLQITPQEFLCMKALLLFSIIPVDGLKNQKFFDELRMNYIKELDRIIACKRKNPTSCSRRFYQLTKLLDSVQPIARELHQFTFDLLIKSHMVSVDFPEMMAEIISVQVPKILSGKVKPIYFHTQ
Type: cell-based
Description: To determine the global effect of the various AIS mutations on AR signaling, each was analyzed using HCA. This technology allows simultaneous quantification of AR protein expression, nuclear translocation, subnuclear patterning, and transcriptional activity. The analysis was done in HeLa cell lines stably transfected with wild type or mutant ARs fused with green fluorescent protein, or using AR immunofluorescence in primary cultures of genital skin fibroblasts generated from foreskin biopsies of historical AIS patients, or of normal neonates undergoing circumcision at birth. To prevent the effects of receptor over-expression, stable HeLa cells were carefully selected to express AR levels similar to LNCaP as previously described. Prior to ligand treatment, HeLa cells were transfected with the pARR2PB-dsRED2skl reporter plasmid, consisting of the AR responsive promoter ARR2PB [31] driving expression of the red fluorescent protein reporter dsRED2skl engineered to target peroxisomes.
For studies utilizing HeLa GFP-AR cell lines, twenty-four hours before transfection with pARR2PB-dsRED2skl, cells were plated onto 100 mm plastic dishes in medium supplemented with 5% charcoal-stripped and dialyzed-FBS. Transient introduction of the pARR-2PB-dsRED2skl reporter construct was performed using 6.0 µg reporter plasmid and 6.0 µg carrier DNA (BlueScript, Stratagene, San Diego, CA) using Transfectin (Biorad) following standard protocols. After 8-hour incubation, DNA/lipid complexes were removed. Cells were then trypsinized and replated at 10,000 cells per well in Nunc poly-D-lysine treated 96-well optical glass bottom plates and incubated an additional 12 hours to allow for cell adhesion. […] Compound dilutions and final addition to multi-well plates were performed using a Beckman Biomek NX robotic platform to ensure repeatability from experiment to experiment. After incubation was complete, using the Biomek NX robot, plates were washed with PBS and fixed for 20 min at RT in 4% formaldehyde prepared in CSK buffer (80 mM potassium PIPES, pH 6.8, 5 mM EGTA, 2 mM MgCl2). After fixation, cells were briefly permeabilized (5 min) with 0.5% Triton-X and prepared for imaging by washing in PBS, aspirating the washed solution, and adding a 1 ng/ml DAPI solution to stain DNA and a generic protein stain (CellMask, Invitrogen) to facilitate cell and nuclear image segmentation. Cells were imaged in PBS.
Cells were imaged using the Cell Lab IC-100 Image Cytometer (IC-100; Beckman Coulter) platform that consists of 1) Nikon Eclipse TE2000-U Inverted Microscope (Nikon; Melville, NY); 2) Chroma 82000 triple band filter set (Chroma; Brattleboro, VT); 3) an imaging camera: Hamamatsu ORCA-ER Digital CCD camera (Hamamatsu; Bridgewater, NJ); and 4) a focusing camera: Photonics COHU Progressive scan camera (Photonics; Oxford, MA). […] In general, 49 to 64 images were captured per well for image analysis.
While our initial AR studies using HTM were based upon CytoShop (Beckman-Coulter), [15], [33], these approaches were refined in the current work with the more robust server-client Pipeline Pilot image analysis platform (Basic and Advanced Imagine Collections, Pipeline Pilot 7.5, Accelrys, San Diego). Initially, the background signal was removed from all images using plate- and channel-specific correction images, generated by the sum projection of >600 randomly selected images for each channel from the image set. This allows for a pixel-by-pixel background subtraction that compensates any consistent uneven background artifacts in the image set. Furthermore, users are able to customize the degree of background subtraction by applying a multiplier to each correction image, useful for identification of objects such as nuclei or cell borders. After background subtraction, nuclear masks were generated using a combination of non-linear least squares and watershed-from-markers image manipulations of the DAPI images (Fig. 1B).

For `C[C@@H]1CC2=CC(=O)CC[C@@H]2[C@H]2CC[C@@]3(C)[C@@H](CC[C@]3(C)O)[C@@H]21` [Mb, Mibolerone], the “recovery of AR-F764 activity, % of control” value (AR-F764L, discussion, test not specified) was 45%, the hyperspeckling response (HeLa AR-F764L) was 132 fold increase and the “induction of transcriptional activity” value (HeLa AR-F764L) was 36 fold. For the same compound, the “increase in the percent of nuclear GFP signal” value (HeLa AR-F764L, vs untreated) was 31%, the “Nuclear Translocation, Max” value (HeLa F764L, % signal present in the nucleus) was 73.2±0.8% and the “Hyperspeckling, Max” value (HeLa F764L, absolute numerical measurement) was 965±8. For the same compound, the “Transcriptional Activity, Max” value (HeLa F764L, pARR2PB-dsRED2skl reporter, absolute numerical measurement) was 92.9±2.2.
